Values of other authors as cited in patent publication US20260027339A1, “FLEXIBLE IMPLANTABLE DEPOTS FOR CONTROLLED DRUG RELEASE” (Foundry Therapeutics, Inc., priority 2023, published 2026).
Where two headings read alike, the source gives them in different places.

Columns and labels:
[1] = at 25° C.

Structure (SMILES)	vapor pressure [1]	LD50 (rats; intravenous) [mg/kg]	LD50 (rats; subcutaneous) [mg/kg]
CCCCN1CCCCC1C(=O)Nc1c(C)cccc1C (stereo not drawn) [bupivacaine]		6	43
CCOC(=O)c1ccccc1C(=O)OCC [diethyl phthalate]	0.28 Pa		
CC(=O)OCC(COC(C)=O)OC(C)=O [triacetin]	0.33 Pa		

More lines, main results first:

vapor pressure [1]	Structure (SMILES)	LD50 (rats; intravenous) [mg/kg]	LD50 (rats; subcutaneous) [mg/kg]
12.53	OCc1ccccc1 [benzyl alcohol]		
0.03 Pa	O=C(OCc1ccccc1)c1ccccc1 [benzyl benzoate]		
